These results are taken from patent publication US10456409B2 (priority 2016, dated 2019).

Common to all, as to type: cell-based, mouse
Assay [1] relates to Alkaline Phosphatase gene expression in BMSC culture. To be noted: four days in OM media, control = 1.00. On the procedure:
(§1) Mesenchymal stem cells isolation: Bone marrow stromal cells were isolated from six to eight weeks old wild type mice. Femurs and tibias were dissected from surrounding tissues. The epiphyseal growth plates were removed and the marrow was collected by flushing with modified essential medium (MEM) containing 100 U/ml Penicillin, 100 μg/ml streptomycin and 10% fetal bovine serum with a 25 G needle. Single cell suspensions were prepared by passing the cell clumps through an 18G needle followed by filtration through a 70-μm cell strainer.
(§2) After cells reached confluence, medium was replaced with osteogenic differentiation medium (OM). Osteogenic differentiation medium (OM) consists of: DMEM, 10% FBS, Pen-Strep (1×), L-Glutamine (2 mM), 10 mM beta glycerol phosphate and 50 μg/ml ascorbic acid. Duplicate wells were exposed to differentiation media without any agent (control), single agent (Cholecalciferol, ATO or Lovastatin) or Nosto-101 combination agents. Media replacement occurred every 2-3 days with fresh differentiation medium (made each time during feeding) with or without single agent or Nosto-101.
qRT-PCR: Total RNA was isolated first with Trizol (Invitrogen) and then with RNeasy Kit (Qiagen). First strand cDNA was generated using a High capacity cDNA reverse transcriptase kit (Abcam). qPCR was performed using a Biorad cycler at 40 cycles of 95° C. for 5 seconds and at 60° C. for 30 seconds. PCR product was detected using SybrGreen (BioRad). Primers used for amplifications were Actin: Forward 5′-CACAGCTTCTTTGCAGCTCCT-3′ (SEQ ID NO:1), Reverse 5′-CGT CAT CCA TGG CGA ACT G-3′ (SEQ ID NO:2); Alk Phos: Forward 5′-CACGCGATGCAACACTCAGG-3′ (SEQ ID NO:3), Reverse 5′-GCATGTCCCCGGGCTCAAAGA-3′ (SEQ ID NO:4).

Assay [2] concerns bone marrow stromal cells (BMSC), first passage (P1). As to the kind of experiment: Alkaline phosphatase assay (NBT/BCIP staining) of primary BMSC (P1) in osteogenic media. The settings on record: primary BMSC P1, four days in osteogenic media; ATO 10 μM, Cholecalciferol 10 μM, Lovastatin 1 μM, NP101 diluted 1:1 or 1:10 (FIG. 1). On the procedure:
as §1, §2
Alkaline phosphatase assay: Cells were stained after 4 days exposure in OM differentiation medium for Alkaline Phosphatase (AP) assay. This is a colorimetric assay in which NBT (nitro-blue tetrazolium chloride) and BCIP (5-Bromo-4-chloro-3′-indolyphosphate p-toluidine salt) yields insoluble purple precipitate when reacted with alkaline phosphatase enzyme.
After 4 days of culturing cells in OM media, cells were fixed with 4% paraformaldehyde and then washed once with PBS. One ml of One-step NBT/BCIP staining solution (Thermo Fisher) was added per well and the cells were then incubated in the dark for 30 min to 1 h and checked for color development. The reaction was quickly stopped by removing NBT/BCIP and adding water.

Assay [3] has as its system BMSC cells primed for osteogenesis. The settings on record: BMSC primed with LCN2 and PRL, then osteogenic media with agent; ATO 10 μM, Cholecalciferol 10 μM, Lovastatin 1 μM, NP101 diluted 1:1 or 1:10 (FIG. 2). On the procedure: as §1
Priming cells for osteogenseis: An aliquot of cells was diluted 1:1 with 0.04% trypan blue in PBS and viable cells were plated at a density of 2×10^6 cells/cm^2 and in a 35-mm culture dish and exposed to recombinant mouse Prolactin (PRL) (1 ng/ml) and/or Lacritin 2(LCN2) (18 ng/ml) in Alpha MEM media with 20% FBS, L-Glutamine 2 mM and Pen-Strep (1×) for three passages to prime cells for osteogenesis. After the third passage, 50,000 bone marrow stromal cells per well were plated in a 24 well plate in Alpha MEM 20% FBS, L-Glutamine (4 mM), PenStrep (1×) and MEM Non-Essential Amino Acids (1×).
as §2
Alkaline phosphatase assay: Cells were stained after 4 days exposure in OM differentiation medium for Alkaline Phosphatase (AP) assay. This is a colorimetric assay in which NBT (nitro-blue tetrazolium chloride) and BCIP (5-Bromo-4-chloro-3′-indolyphosphate p-toluidine salt) yields insoluble purple precipitate when reacted with alkaline phosphatase enzyme. […]

Where two headings read alike, the source gives them in different places.

Regarding `C=C1CC[C@H](O)C/C1=C/C=C1\CCC[C@]2(C)[C@@H]([C@H](C)CCCC(C)C)CC[C@@H]12` [Cholecalciferol], in assay [1] (10 μm agent), the “ALP gene expression fold change” value was 0.350 ± 0.02 fold. In addition, the “alkaline phosphatase activity (number of blue colored cells)” value (“alkaline phosphatase activity” below) in assay [2] is given as “decreases”. In assay [3], the “ALP activity (presence of bluish/purple cells)” value is on record as “clearly diminish ALP activity”.
Take `CC[C@H](C)C(=O)O[C@H]1C[C@@H](C)C=C2C=C[C@H](C)[C@H](CC[C@@H]3C[C@@H](O)CC(=O)O3)[C@H]21` [Lovastatin]: the “ALP gene expression fold change” value in assay [1] (1 μm agent) is 0.316 ± 0.02 fold. The “alkaline phosphatase activity” value in assay [2] is given as “decreases”. In assay [3], the “ALP activity (presence of bluish/purple cells)” value was “clearly diminish ALP activity”.
For the molecule Arsenic trioxide [ATO], the “ALP gene expression fold change” value in assay [1] (10 μm agent) is 0.105 ± 0.01 fold. In addition, the “alkaline phosphatase activity” value in assay [2] is “decreases”. The “ALP activity (presence of bluish/purple cells)” value in assay [3] is “clearly diminish ALP activity”.
